# Where no end group is shown, it is not given here.
# Legend:
# FGFR1B = FGFR1B (Homo sapiens, UniProt P11362); assay: SPR detection of interaction with FGFR1B in presence of bFGF; type: binding
# Description: Amino acid sequence of P9 degraded short peptide P48 was analyzed using Amber11 program. An initial structure of the P9 and P48 peptide chains was constructed using a sequence command in a Tleap module of the Amber11 program. Hydrogen atoms were added using the Tleap module of the Amber11 program, a […] TIP3P solvent box was added at a distance of 10 Å from the peptide chain, and counter ions were added to the two systems to keep the system electrically neutral. The system was subjected to 20-ns NPT system simulation to obtain an optimal spatial structure. […] The experimental procedure was as follows: the plasma was centrifuged and the supernatant was removed, and 60 μl of peptide was added to incubate for different lengths of time (P9 was incubated for 5, 10, 15, 20, 25, 30 and 45 min; P48 was incubated for 1, 2, 3, 4, 5, 10 and 12 h), and the incubation was terminated with 200 μl of 5% glacial acetic acid. Solid phase extraction: activation was conducted with 1.5 ml of methanol, an obtained product was washed with 1.5 ml of H2O, 400 μl of a sample was loaded, washed with 1 ml of H2O, and elution was conducted with 2 ml of 30% acetonitrile to collect samples, and the samples were freeze-dried and subjected to liquid chromatography analysis. […] The last 1 ns of trajectory obtained by molecular dynamics simulation of the system was selected to calculate the binding free energy, the molecules of the solvent of water and counter ion were deleted, and conformation was recorded every 10 ps to obtain a total of 101 structures. The binding free energy between FGF2 and FGFR1 were calculated by a molecular mechanics-generalized born surface area (MM-GBSA) method. The binding free energy and energy decomposition of amino acid residues were calculated using an MMPBA.py script provided by the Amber11. […] After bFGF and FGFR1 flew into the sensor chip, P48 (50 μM, 100 μM, 200 μM, 300 μM and 400 μM) was injected into a sensor surface, and the obtained data was analyzed using BIAevaluation software.
# FGFR1C = biological target: T1, FGFR1C (Homo sapiens, UniProt P11362); assay: SPR detection of interaction with FGFR1C; type: binding
# T1 sequence (P11362 22-376 limits assumed): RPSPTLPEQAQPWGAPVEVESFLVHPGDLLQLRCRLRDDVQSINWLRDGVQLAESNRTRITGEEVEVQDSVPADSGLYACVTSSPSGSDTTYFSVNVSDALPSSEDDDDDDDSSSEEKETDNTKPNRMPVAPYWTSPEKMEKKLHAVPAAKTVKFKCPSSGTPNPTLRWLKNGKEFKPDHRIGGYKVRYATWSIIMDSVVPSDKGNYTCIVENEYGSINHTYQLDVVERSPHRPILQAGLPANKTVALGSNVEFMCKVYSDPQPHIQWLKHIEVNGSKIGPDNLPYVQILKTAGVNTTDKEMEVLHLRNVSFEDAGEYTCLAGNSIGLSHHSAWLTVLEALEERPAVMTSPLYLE
# Description: Amino acid sequence of P9 degraded short peptide P48 was analyzed using Amber11 program. An initial structure of the P9 and P48 peptide chains was constructed using a sequence command in a Tleap module of the Amber11 program. Hydrogen atoms were added using the Tleap module of the Amber11 program, a […] TIP3P solvent box was added at a distance of 10 Å from the peptide chain, and counter ions were added to the two systems to keep the system electrically neutral. The system was subjected to 20-ns NPT system simulation to obtain an optimal spatial structure. […] The last 1 ns of trajectory obtained by molecular dynamics simulation of the system was selected to calculate the binding free energy, the molecules of the solvent of water and counter ion were deleted, and conformation was recorded every 10 ps to obtain a total of 101 structures. The binding free energy between FGF2 and FGFR1 were calculated by a molecular mechanics-generalized born surface area (MM-GBSA) method. The binding free energy and energy decomposition of amino acid residues were calculated using an MMPBA.py script provided by the Amber11. […] After bFGF and FGFR1 flew into the sensor chip, P48 (50 μM, 100 μM, 200 μM, 300 μM and 400 μM) was injected into a sensor surface, and the obtained data was analyzed using BIAevaluation software. […]
# FGFR1 [1] = biological target: T2, FGFR1 (Homo sapiens, UniProt P11362); assay: Western blot of bFGF-induced FGFR1 activation in HEK-293 cells; type: cell-based; design: endogenous in cells; host or cells: HEK-293; details: P48 pretreatment 10 min, bFGF 15 min
# Description: (§1) Human embryonic kidney cells HEK-293, fibroblasts MEF-WT and Balb/c 3T3 were inoculated into 6-well plates, respectively. After growing adherently overnight, the cells were pretreated with P48 for 10 min or with AZD4547/PD173074/SSR for 2 h, and incubated with bFGF for 15 min. […] The experimental procedure was as follows: MEF-WT and MEFKO (FGFR1-FGFR2-FRS2a) cells (1×10^6 cells/ml) were inoculated in a 35 mm petri dish. After being adhered to the wall of petri dish overnight, the cells were washed with PBS; FITC-conjugated P48 (1, 10, 100 and 1000 nM) was added, and the cells were incubated in an incubator for 30 min. The cells were immobilized with 1% paraformaldehyde in the dark and washed with PBS. An expression level of the FITC was measured at a fluorescence channel 1 (FL-1) (530 nm), with an excitation wavelength of 488 nm. Data analysis was conducted using CellQuest software (Becton Dickinson).
# PLCy = assay: Western blot of FGFR1 downstream protein PLCy in MEF-WT cells; type: cell-based; details: bFGF stimulation 15 min
# Description: as §1
# FGFR1 [2] = biological target: T2, FGFR1; assay: Western blot of FGFR1 signaling pathway in gastric cancer cells SGC-7901 and MGC-803; type: cell-based; design: endogenous in cells; host or cells: Hela229; NCI-H460; SGC-7901; MGC-803
# Description: Cervical cancer cells Hela229, melanoma B16-F10, lung cancer cells NCI-H460, gastric cancer cells SGC-7901 and MGC-803 were inoculated into 6-well plates, respectively. After growing adherently overnight, the cells were pretreated with P48 for 10 min or with AZD4547/SSR for 2 h, and incubated with bFGF for 15 min or with KGF for 20 min.
# [3] = gastric cancer cell lines, bFGF stimulation
# Chain of FGFR1B (P11362 22-822 isoform P11362-19 limits assumed): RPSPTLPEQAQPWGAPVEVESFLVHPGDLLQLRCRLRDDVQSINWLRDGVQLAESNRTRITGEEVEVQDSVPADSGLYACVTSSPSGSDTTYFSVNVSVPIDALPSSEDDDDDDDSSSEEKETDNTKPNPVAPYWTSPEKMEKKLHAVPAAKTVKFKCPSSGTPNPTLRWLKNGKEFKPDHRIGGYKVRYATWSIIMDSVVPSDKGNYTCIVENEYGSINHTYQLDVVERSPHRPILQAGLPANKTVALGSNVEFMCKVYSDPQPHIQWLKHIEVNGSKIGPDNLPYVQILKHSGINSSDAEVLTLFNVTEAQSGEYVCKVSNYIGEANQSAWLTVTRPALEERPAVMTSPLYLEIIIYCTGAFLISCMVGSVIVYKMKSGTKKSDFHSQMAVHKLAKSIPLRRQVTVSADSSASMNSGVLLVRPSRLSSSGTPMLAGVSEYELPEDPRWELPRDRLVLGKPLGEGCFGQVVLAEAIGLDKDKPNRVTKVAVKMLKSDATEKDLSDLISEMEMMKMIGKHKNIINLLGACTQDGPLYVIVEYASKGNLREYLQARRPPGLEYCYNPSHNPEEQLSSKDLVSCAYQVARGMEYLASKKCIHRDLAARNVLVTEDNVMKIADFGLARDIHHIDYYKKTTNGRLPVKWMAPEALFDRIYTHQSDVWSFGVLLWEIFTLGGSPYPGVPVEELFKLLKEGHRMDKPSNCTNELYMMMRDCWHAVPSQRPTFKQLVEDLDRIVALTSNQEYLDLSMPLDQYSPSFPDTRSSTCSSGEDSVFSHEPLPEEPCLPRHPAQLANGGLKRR
# T2 sequence (P11362 22-822): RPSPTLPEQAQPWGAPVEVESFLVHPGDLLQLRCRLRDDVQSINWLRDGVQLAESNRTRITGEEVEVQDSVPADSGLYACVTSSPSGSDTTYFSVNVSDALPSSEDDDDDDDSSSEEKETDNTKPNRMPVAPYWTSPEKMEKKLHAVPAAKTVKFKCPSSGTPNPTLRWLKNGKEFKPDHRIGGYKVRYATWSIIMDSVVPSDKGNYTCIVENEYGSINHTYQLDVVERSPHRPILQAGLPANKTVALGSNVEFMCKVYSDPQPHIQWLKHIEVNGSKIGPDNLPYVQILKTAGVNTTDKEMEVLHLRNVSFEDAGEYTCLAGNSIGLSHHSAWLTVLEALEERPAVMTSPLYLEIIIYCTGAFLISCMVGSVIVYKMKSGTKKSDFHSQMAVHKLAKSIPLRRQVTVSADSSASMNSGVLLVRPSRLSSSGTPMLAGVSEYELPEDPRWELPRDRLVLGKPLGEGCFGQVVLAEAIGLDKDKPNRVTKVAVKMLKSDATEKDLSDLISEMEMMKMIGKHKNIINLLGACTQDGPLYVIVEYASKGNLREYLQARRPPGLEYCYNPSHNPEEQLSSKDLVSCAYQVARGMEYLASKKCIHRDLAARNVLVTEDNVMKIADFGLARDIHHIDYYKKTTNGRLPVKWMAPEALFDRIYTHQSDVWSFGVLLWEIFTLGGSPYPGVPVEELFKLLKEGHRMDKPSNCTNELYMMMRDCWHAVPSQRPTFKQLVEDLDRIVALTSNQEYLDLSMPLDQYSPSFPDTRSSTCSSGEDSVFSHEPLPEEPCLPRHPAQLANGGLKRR
substance,measurement,setting,value
"SPPRYPGGGS-NH2 [P48, Ser-Pro-Pro-Arg-Tyr-Pro-Gly-Gly-Gly-Ser-NH2]",competitive binding to FGFR1 with bFGF,FGFR1B; P48 50-400 μM,can competitively bind to FGFR1 with basic fibroblast growth factor (bFGF)
same,concentration dependence of binding force,FGFR1B; P48 50-400 μM,a higher concentration leads to a stronger binding force
same,binding degree FGFR1 versus FGFR2 and FGFR3,FGFR1B; comparison of FIG. 1F and FIG. 2,stronger than that with FGFR2 and FGFR3
same,binding to FGFR1C,FGFR1C,can be bound
same,rank of binding degree among FGFRs,FGFR1C,FGFR1C has the strongest binding degree
same,inhibition of FGFR1 activation induced by bFGF,FGFR1 [1],can inhibit activation of FGFR1 induced by bFGF in a concentration-dependent manner
same,inhibitory effect on downstream PLCy,PLCy,no significant inhibitory effect
same,effect on KGF stimulation,"FGFR1 [2]; SGC-7901, KGF 20 min",has no effect
same,effect on aFGF stimulation,"FGFR1 [2]; SGC-7901, aFGF 15 min",has no effect
same,inhibition of FGFR1 activation under bFGF stimulation,"FGFR1 [2]; SGC-7901, bFGF 15 min",can only inhibit the activation of FGFR1 induced by bFGF
same,inhibition of FGFR1 signaling pathway,"FGFR1 [2]; gastric cancer (SGC-7901, MGC-803), bFGF stimulation","can inhibit the FGFR1 signaling pathway of cervical cancer, melanoma, lung cancer and gastric cancer in a concentration-dependent manner"
same,activity on FGFR1 signaling compared with AZD4547,FGFR1 [2]; [3],weaker than that of AZD4547
same,inhibitory effect on FGFR1 signaling compared with SSR,FGFR1 [2]; [3],comparable to that of the SSR

# From patent US20240101600A1, “FIBROBLAST GROWTH FACTOR RECEPTOR (FGFR)-TARGETING ANTAGONISTIC SHORT PEPTIDE” (WENZHOU MEDICAL UNIVERSITY, priority 2019, published 2024)
